# Reference: patent EP0878193A1, “REMEDIES FOR HERPESVIRUS INFECTION CAUSED BY HERPESVIRUS AND PREVENTIVES FOR RECURRENCE OF THE INFECTION BOTH CONTAINING TRITERPENE DERIVATIVES AS THE ACTIVE INGREDIENT” (Showa Shell Sekiyu K.K., priority 1996, dated 1997)
# Assays:
# [1] = test system: TK^-; assay: plaque formation test (antiviral activity, CPE as index) on Vero cells; format: cell-based, TK deficiency herpes simplex virus type 1 (strain B 2006); conditions: Human alphaherpesvirus 1, Vero, read-out: EC50 (µg/mℓ) (average ± standard deviation)
# From the text: (§1) In order to examine antiviral activity, herpes simplex virus type 1 (strain 7401 H) (referred sometimes to as "HSV-1" hereinafter), TK deficiency herpes simplex virus type 1 (strain B 2006) (referred sometimes to as "TK^-" hereinafter), phosphono acetic acid (referred to as "PAA" hereinafter) resistant herpes simplex virus type 1 (PAA resistant strain derived from 7401 H) (referred sometimes to as "AP^r1" hereinafter) and herpes simplex virus type 2 (strain Ito 1262) (referred sometimes to as "HSV-2" hereinafter) were used as viruses. […]
# (§2) That is, the above-described virus solution was diluted to a concentration of 100 plaques/0.2 mℓ, the thus diluted virus solution (0.2 mℓ) was inoculated into Vero cells which have been cultured into monolayer in a plastic dish of 60 mm in diameter, and the mixture was incubated at 37°C for 1 hour to effect adsorption of viruses to the Vero cells. After the adsorption, 2% fetal bovine serum-added MEM medium (5 mℓ) containing each drug solution to be measured having varied drug concentration and 0.8% methyl cellulose was overlaid on the just described virus-adsorbed monolayer Vero cells which were subsequently cultured at 37°C for 2 to 5 days to effect plaque formation. […] The number of plaques was counted under a stereoscopic microscope. […]
# [2] = test system: HSV-1; assay: as above; format: cell-based, herpes simplex virus type 1 (strain 7401 H); conditions: Human alphaherpesvirus 1, Vero, 50% plaque formation inhibition concentration; HSV-1 on Vero cells; three experiments; read-out: EC50 (µg/mℓ) (average ± standard deviation)
# From the text: as §1, §2
# [3] = test system: HSV-2; assay: as above; format: cell-based, herpes simplex virus type 2 (strain Ito 1262); conditions: Human alphaherpesvirus 2, Vero, 50% plaque formation inhibition concentration; HSV-2 on Vero cells; three experiments; read-out: EC50 (µg/mℓ) (average ± standard deviation)
# From the text: as §1, §2
# [4] = test system: HSV-1; assay: skin infection of BALB/c mice with HSV-1, scoring of affected parts and survival; format: in vivo
# From the text: In order to illustratively confirm the effect of 3-oxo-olean-18-en-28-oic acid (moronic acid) to inhibit growth of viruses after viral infection, skin cell tissues of BALB/c mice were infected with the strain HSV-1 and then the parts affected thereafter were observed and scored. The scores were made based on the average time (days ± standard deviation) until the affected parts reached score 2 (local efflorescence, bulla, erosion) or score 6 (slight shingles) and based on the survival days.
# [5] = test system: AP^r1; assay: plaque formation test (antiviral activity, CPE as index) on Vero cells; format: cell-based; conditions: Human alphaherpesvirus 1, Vero, read-out: EC50 (µg/mℓ) (average ± standard deviation), 50% plaque formation inhibition concentration, three experiments
# From the text: as §1, §2
# [6] = Exp. 3, 1 mg/kg oral three times a day
# [7] = Exp. 3, 10 mg/kg oral three times a day
# [8] = Exp.1, 1 mg/kg oral three times a day
# [9] = Exp.2, 0.2 mg/kg oral three times a day
# [10] = Exp.2, 1 mg/kg oral three times a day
# [11] = Exp.2, 5 mg/kg oral three times a day
smiles,measurement,setting,value
"CC1(C)C=C2[C@H]3CC[C@@H]4[C@@]5(C)CCC(=O)C(C)(C)[C@@H]5CC[C@@]4(C)[C@]3(C)CC[C@@]2(C(=O)O)CC1 [Moronic acid, 3-oxo-olean-18-en-28-oic acid]",EC50,[1],2 ± 0.4 µg/mL
same,EC50,[2],3.9 ± 1.1 µg/mL
same,EC50,[3],5.8 ± 0.5 µg/mL
same,"Average time (days ± standard deviation) Score-2 (local efflorescence, bulla, erosion)",[4]; [6],3.80 ± 0.63 b days
same,Average time (days ± standard deviation) Score-6 (slight shingles),[4]; [6],5.60 ± 0.71 days
same,Average time (days ± standard deviation) Survival,[4]; [6],7.70 ± 2.16 days
same,"Average time (days ± standard deviation) Score-2 (local efflorescence, bulla, erosion)",[4]; [7],3.70 ± 0.48 b days
same,Average time (days ± standard deviation) Score-6 (slight shingles),[4]; [7],5.30 ± 0.48 days
same,Average time (days ± standard deviation) Survival,[4]; [7],6.80 ± 0.42 days
same,"Average time (days ± standard deviation) Score-2 (local efflorescence, bulla, erosion)",[4]; [8],3.90 ± 0.70 b days
same,Average time (days ± standard deviation) Score-6 (slight shingles),[4]; [8],5.70 ± 0.68 b days
same,Average time (days ± standard deviation) Survival,[4]; [8],7.30 ± 1.16 b days
same,"Average time (days ± standard deviation) Score-2 (local efflorescence, bulla, erosion)",[4]; [9],4.00 ± 0.47 d days
same,Average time (days ± standard deviation) Score-6 (slight shingles),[4]; [9],5.78 ± 0.97 days
same,Average time (days ± standard deviation) Survival,[4]; [9],6.89 ± 0.33 days
same,"Average time (days ± standard deviation) Score-2 (local efflorescence, bulla, erosion)",[4]; [10],3.60 ± 0.70 days
same,Average time (days ± standard deviation) Score-6 (slight shingles),[4]; [10],5.40 ± 0.52 days
same,Average time (days ± standard deviation) Survival,[4]; [10],7.00 ± 1.49 days
same,"Average time (days ± standard deviation) Score-2 (local efflorescence, bulla, erosion)",[4]; [11],3.90 ± 0.74 b days
same,Average time (days ± standard deviation) Score-6 (slight shingles),[4]; [11],5.40 ± 0.53 days
same,Average time (days ± standard deviation) Survival,[4]; [11],7.10 ± 1.52 days
same,EC50,[5],1.6 ± 0.4 µg/mL
